Results taken from article PMC4549706, “Rational Design of Highly Potent and Slow-Binding Cytochrome bc1 Inhibitor as Fungicide by Computational Substitution Optimization” (Scientific Reports, 2015).
Like-named read-outs stand apart in the source and are kept apart here.

Columns and labels:
bc1 complex = target: T1, bc1 complex (Sus scrofa, UniProt P24964); test: bc1 complex activity, DBH2-cytochrome c system (Assay 3); assay type: biochemical, porcine
T1 construct: T h e S C R f r o m p o r c i n e h e a r t; from tissue; host or cells: porcine heart
Description: Figure 3 Inhibitory kinetics of bc1 complex. (A) Chemical structures of AZ (azoxystrobin) and its analogues, compound 1 and compound 18. These compounds have a common pharmacophore structure: methoxyacrylate (MOA). […] Each reaction mixture contains phosphate buffered saline (PBS; 100 mM, pH 6.5), ethylenediaminetetraacetic acid (EDTA; 2 mM), lauryl maltoside (750 μM), oxidised cytochrome c (100 μM), SCR (0.05 nM), DBH2 (20–120 μM) and a specified amount of AZ (1, 0 nM; 2, 500 nM; 3, 1000 nM; 4, 2000 nM; 5, 3000 nM; and 6, 5000 nM). (C) Compound 1 is non-competitive with respect to cytochrome c. The reaction mixture contains 100 mM, pH 7.4), EDTA (0.3 mM), succinate (20 mM), SCR (0.1 nM), cytochrome c (1.13–15.6 μM), and a series of concentrations of compound 1 (1, 0 nM; 2, 10 nM; 3, 20 nM; 4, 40 nM; and 5, 60 nM). (D) Compound 1 is competitive with respect to DBH2. Each reaction mixture contains 100 mM, pH 6.5), EDTA (2 mM), lauryl maltoside (750 μM), oxidised cytochrome c (100 μM), SCR (0.05 nM), DBH2 (20–120 μM) and a specified amount of compound 1 (1, 0 nM; 2, 50 nM; 3, 100 nM; 4, 200 nM; 5, 300 nM; and 6, 500 nM).
Figure 4 Slow-binding inhibition mechanism. (A,B) Effect of various concentrations of cytochrome c and compound 18 on the inhibition of SCR activity. Each reaction mixture contains 100 mM, pH 7.4), EDTA (0.3 mM), succinate (20 mM), SCR (0.1 nM), and indicated amounts of cytochrome c and compound 18. The assays were performed in the presence of (A) 18 (35 nM) and a specified amount of cytochrome c (1, 4 μM; 2, 8 μM; 3, 20 μM; and 4, 48 μM) or (B) cytochrome c (60 μM) and various concentrations of compound 18 (1, 0 nM; 2, 15 nM; 3, 20 nM; 4, 30 nM; 5, 40 nM; and 6, 50 nM). Experimental data are shown as coloured dots and theoretical values are represented as black solid lines. Insets: plots of Kobs against concentration of (A) cytochrome c and (B) compound 18. […] Each reaction mixture contains 100 mM, pH 6.5), EDTA (2 mM), lauryl maltoside (750 μM), oxidised cytochrome c (100 μM), SCR (0.05 nM), and indicated amounts of DBH2 and compound 18. Two representative sets of inhibitory assays were performed in the presence of (C) DBH2 (20 μM) and a specified amount of compound 18 (1, 20 nM; 2, 40 nM; 3, 60 nM; 4, 80 nM), or (D) DBH2 (120 μM) and a specified amount of compound 18 (1, 40 nM; 2, 80 nM; 3, 120 nM; 4, 180 nM). Insets: plots of Kobs against concentration of compound 18. (E) Plot of the apparent rate constant A against concentration of DBH2. Inset: Plot of 1/A against concentration of DBH2. (F) Plot of the apparent rate constant B against concentration of DBH2.
The porcine succinate-cytochrome c reductase (SCR, the mixture of complex II and bc1) was prepared essentially according to the previously reported method. The enzymatic activities of SCR, complex II, and bc1 complex were analyzed in respective reaction mixtures as reported previously. Kinetic analyses for the inhibition mechanism were performed as previously described. […]
inhibitory kinetics study of bc1 inhibitors 8. […]
synthesized compounds against bc1 complex were examined by SCR. As previously described 9, the combined activity of SCR can be determined by using succinate and cytochrome c as substrates (Assay 1). We also measured the activity of complex II by using succinate and 2,6-dichloroindophenol (DCIP) as substrates (Assay 2), or the activity of bc1 complex by using decylubiquinol (DBH2) and cytochrome c as substrates (Assay 3). […]
redA 10, was used to represent the enzyme concentration. The three redox reactions used in this study were summarized as follows. […]

[1] = system: Pseudoperonospora cubensis (Berk. et Curt.); test: In vivo fungus growth inhibitory rate at 200 mg/L, downy mildew
Description: [a] Compounds are named as “series number-site number plus substitution group number” a: -F, b: -Cl, c:
-Br, d: -NO2, e: -CH3, f: -CF3, g: -OCH3, h: -OH, i: -NH2, j: -COOH.
[b] Substitution number and group.
[c] CH is “series 1” and N is “series 2”. […]
Table S2 Fungus growth inhibitory rate of target compounds (200 mg/L).
Comp. No. R X Sphaerotheca fuliginea Pseudoperonospora cubensis

T1 sequence (P24964 whole entry, one chain of several): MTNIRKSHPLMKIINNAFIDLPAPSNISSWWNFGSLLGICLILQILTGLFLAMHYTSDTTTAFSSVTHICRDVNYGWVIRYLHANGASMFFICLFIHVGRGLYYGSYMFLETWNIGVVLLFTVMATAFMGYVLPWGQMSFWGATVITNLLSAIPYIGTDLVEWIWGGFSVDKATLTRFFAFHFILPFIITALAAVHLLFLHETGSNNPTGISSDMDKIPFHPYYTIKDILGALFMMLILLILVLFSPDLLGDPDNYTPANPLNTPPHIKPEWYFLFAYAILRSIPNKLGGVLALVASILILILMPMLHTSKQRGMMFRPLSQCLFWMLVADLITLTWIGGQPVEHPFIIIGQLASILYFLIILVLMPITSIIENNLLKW

| SMILES | Ki (bc1 complex) | inhibition type with respect to DBH2 (bc1 complex; Assay 3, varied DBH2) | Fungus growth inhibitory rate, Pseudoperonospora cubensis [1] | microscopic inhibition rate constant k+0 (bc1 complex; Assay 3, varied DBH2) | microscopic inhibition rate constant k−0 (bc1 complex; Assay 3, varied DBH2) | Fungus growth inhibitory rate, Pseudoperonospora cubensis ([1]; listed as Comp. 18) |
| --- | --- | --- | --- | --- | --- | --- |
| CO/C=C(/C(=O)OC)c1ccccc1Oc1cc(Oc2ccccc2C#N)ncn1 [AZ, Azoxystrobin, reference compound] | 395 ± 19.6 nM | competitive inhibitor | 94% | – | – | – |
| COC=C(C(=O)OC)c1ccccc1CSc1nc2cc(OC)ccc2s1 [Compound 18] | 13.4 ± 0.6 nM | competitive inhibitor | completely inhibited | 0.00038 ± 0.00001 s⁻¹ nM⁻¹ | 0.00509 ± 0.00009 s⁻¹ | 100% |
